Measured values from ChEMBL document CHEMBL4706648, “Antitubercular 2-Pyrazolylpyrimidinones: Structure-Activity Relationship and Mode-of-Action Studies” (J Med Chem, 2021).
≈ marks a conversion by molar mass, not a printed value. Calls of active or inactive are those of the source. The rule behind the calls is not given here.

Columns and labels:
[1] = Total blood clearance in C57/BL6 mouse blood at 2 mg/kg, iv administered as bolus dose measured upto 24 hrs by LC-MS/MS analysis; assay type: ADME, organism-based
[2] = Tmax in C57/BL6 mouse blood at 20 mg/kg, po measured upto 24 hrs by LC-MS/MS analysis; assay type: ADME, organism-based; conditions: C57/BL6, mouse, blood, read-out: Tmax
[3] = Metabolic stability in human liver microsomes assessed as parent compound remaining after 30 mins; assay type: ADME, Microsome; conditions: 0.5 h
[4] = Oral bioavailability in C57/BL6 mouse blood at 20 mg/kg measured upto 24 hrs by LC-MS/MS analysis; assay type: ADME, organism-based; conditions: C57/BL6, mouse, blood
[5] = Cmax in C57/BL6 mouse blood at 20 mg/kg, po measured upto 24 hrs by LC-MS/MS analysis; assay type: ADME, organism-based; design: route oral, dose 20 mg/kg, time <=24; conditions: C57/BL6, mouse, blood
CHO = assay: Cytotoxicity against CHO cells assessed as reduction in cell viability by MTT assay; assay type: cell-based; conditions: Cricetulus griseus
[6] = Volume of distribution during elimination phase in C57/BL6 mouse blood at 2 mg/kg, iv administered as bolus dose measured upto 24 hrs by LC-MS/MS analysis; assay type: ADME, organism-based; conditions: C57/BL6, mouse, blood, read-out: Vd
[7] = Aqueous solubility of compound at pH 7.4; assay type: physicochemical
[8] = test system: Mycobacterium tuberculosis; assay: Antimycobacterial activity against wild-type Mycobacterium tuberculosis H37Rv assessed as inhibition of bacterial growth grown under middlebrook 7H9 medium incubated for 7 days by alamar blue broth microdilution method; assay type: functional; conditions: 168 h, time 7 day
[9] = Kinetic solubility of compound at 200 uM at pH 7.4 measured after 20 hrs by HPLC-DAD analysis; assay type: physicochemical; conditions: buffer, pH 7.4, 20 h
[10] = Apparent half life in C57/BL6 mouse blood at 20 mg/kg, po measured upto 24 hrs by LC-MS/MS analysis; assay type: ADME, organism-based; conditions: C57/BL6, mouse, blood, read-out: t1/2(app) (converted)
[11] = Intrinsic clearance in C57/BL6 mouse blood at 2 mg/kg, iv administered as bolus dose measured upto 24 hrs by LC-MS/MS analysis; assay type: ADME, organism-based; conditions: in vivo
[12] = Apparent half life in C57/BL6 mouse blood at 2 mg/kg, iv administered as bolus dose measured upto 24 hrs by LC-MS/MS analysis; assay type: ADME, organism-based; conditions: C57/BL6, mouse, blood, read-out: t1/2(app) (converted)
[13] = AUC (0 to infinity) in C57/BL6 mouse blood at 2 mg/kg, iv administered as bolus dose measured upto 24 hrs by LC-MS/MS analysis; assay type: ADME, organism-based; design: route intravenous, dose 2 mg/kg, time <=24; conditions: C57/BL6, mouse, blood
[14] = Cmax in C57/BL6 mouse blood at 2 mg/kg, iv administered as bolus dose measured upto 24 hrs by LC-MS/MS analysis; assay type: ADME, organism-based; design: route intravenous, dose 2 mg/kg, time <=24; conditions: C57/BL6, mouse, blood
[15] = Metabolic stability in mouse liver microsomes assessed as parent compound remaining after 30 mins; assay type: ADME, Microsome; conditions: 0.5 h
[16] = Protein binding in human plasma assessed as unbound fraction at 5 uM incubated for 1 hr at 37 degreeC and measured after 4 hrs by ultracentrifugation based LC-MS/MS analysis; assay type: ADME, cell-free; conditions: 5 h
[17] = test system: Mycobacterium tuberculosis; assay: Bactericidal activity against Mycobacterium tuberculosis H37Rv assessed as reduction in CFU grown under middlebrook 7H9/OADC-Glycerol-Tween80 medium at 1 to 2 times MIC incubated for 7 days; assay type: functional; conditions: time 7 day
[18] = test system: Mycobacterium tuberculosis; assay: Antimycobacterial activity against mmpL3 gene silenced Mycobacterium tuberculosis H37Rv assessed as inhibition of bacterial growth grown under middlebrook 7H9 medium incubated for 7 days by alamar blue broth microdilution method; assay type: functional, organism-based; conditions: time 7.0 day
[19] = test system: Mycobacterium tuberculosis; assay type: functional; conditions: H37Rv, 168 h, time 7 day
[20] = AUC (0 to infinity) in C57/BL6 mouse blood at 20 mg/kg, po measured upto 24 hrs by LC-MS/MS analysis; assay type: ADME, organism-based; design: route oral, dose 20 mg/kg, time <=24
[21] = Metabolic stability in rat liver microsomes assessed as parent compound remaining after 30 mins; assay type: ADME, Microsome; conditions: 0.5 h
[22] = test system: Mycobacterium tuberculosis; assay type: functional; conditions: H37Rv, time 6.0 hrs
[23] = test system: Mycobacterium tuberculosis; assay: Upregulation of rv1344 in Mycobacterium tuberculosis H37Rv assessed as fold change incubated for 6 hrs by microarray based assay; assay type: functional
[24] = test system: Mycobacterium tuberculosis; assay: Upregulation of rv1349 in Mycobacterium tuberculosis H37Rv assessed as fold change incubated for 6 hrs by microarray based assay; assay type: functional
[25] = test system: Mycobacterium tuberculosis; assay: Upregulation of rv1348 in Mycobacterium tuberculosis H37Rv assessed as fold change incubated for 6 hrs by microarray based assay; assay type: functional
[26] = test system: Mycobacterium tuberculosis; assay type: functional; conditions: H37Rv, time 6.0 hrs; remark: listed apart in the source
[27] = test system: Mycobacterium tuberculosis; assay: Upregulation of rv2385 in Mycobacterium tuberculosis H37Rv incubated for 6 hrs by microarray based assay; assay type: functional
[28] = test system: Mycobacterium tuberculosis; assay: Upregulation of rv1343 in Mycobacterium tuberculosis H37Rv assessed as fold change incubated for 6 hrs by microarray based assay; assay type: functional
[29] = test system: Mycobacterium tuberculosis; assay type: functional; conditions: H37Rv, time 6.0 hrs; remark: listed apart in the source
[30] = test system: Mycobacterium tuberculosis; assay type: functional; conditions: H37Rv, time 6.0 hrs; remark: listed apart in the source
[31] = test system: Mycobacterium tuberculosis; assay type: functional; conditions: H37Rv, time 6.0 hrs; remark: listed apart in the source
[32] = test system: Mycobacterium tuberculosis; assay type: functional; conditions: H37Rv, time 6.0 hrs; remark: listed apart in the source
[33] = Metal chelating activity assessed as Fe2+-compound complex formation by measuring decrease in band intensity at 10 uM measured after 1 hr in presence of ferrous sulphate by UV-Visible spectrophotometric analysis
[34] = test system: Mycobacterium tuberculosis; assay: Upregulation of rv1347 in Mycobacterium tuberculosis H37Rv assessed as fold change incubated for 6 hrs by microarray based assay; assay type: functional
[35] = test system: Mycobacterium tuberculosis; assay: Upregulation of rv3269 in Mycobacterium tuberculosis H37Rv incubated for 6 hrs by microarray based assay; assay type: functional
[36] = test system: Mycobacterium tuberculosis; assay: Upregulation of rv1345 in Mycobacterium tuberculosis H37Rv assessed as fold change incubated for 6 hrs by microarray based assay; assay type: functional
[37] = test system: Mycobacterium tuberculosis; assay: Upregulation of rv1346 in Mycobacterium tuberculosis H37Rv assessed as fold change incubated for 6 hrs by microarray based assay; assay type: functional
[38] = test system: Mycobacterium tuberculosis; assay type: functional, H37Rv; conditions: time 7 day
[39] = test system: Mycobacterium tuberculosis; assay type: functional; conditions: H37Rv, 168 h, time 7 day; remark: listed apart in the source
[40] = test system: Mycobacterium tuberculosis; assay: Upregulation of rv3270 in Mycobacterium tuberculosis H37Rv incubated for 6 hrs by microarray based assay; assay type: functional
[41] = test system: Mycobacterium tuberculosis; assay: Upregulation of rv1342 in Mycobacterium tuberculosis H37Rv assessed as fold change incubated for 6 hrs by microarray based assay; assay type: functional
[42] = test system: Mycobacterium tuberculosis; assay: Upregulation of rv2384 in Mycobacterium tuberculosis H37Rv incubated for 6 hrs by microarray based assay; assay type: functional
[43] = Metal chelating activity assessed as Fe2+-compound complex formation by measuring shift in absorbance at 10 uM at 285 nm measured after 1 hr in presence of ferrous sulphate by UV-Visible spectrophotometric analysis
[44] = test system: Mycobacterium tuberculosis; assay type: functional; conditions: H37Rv, time 6.0 hrs; remark: listed apart in the source
[45] = test system: Mycobacterium tuberculosis; assay type: functional; conditions: H37Rv, time 6.0 hrs; remark: listed apart in the source
[46] = test system: Mycobacterium tuberculosis; assay type: functional; conditions: H37Rv, 168 h, time 7 day; remark: listed apart in the source
Vero = assay: Cytotoxicity against African green monkey Vero cells assessed as reduction in cell viability by MTT assay; assay type: cell-based; conditions: Chlorocebus sabaeus
[47] = Lipophilicity, log D of the compound in n-octanol and phosphate buffer at pH 7.4 measured after 3 hrs by HPLC-DAD analysis; assay type: physicochemical
[48] = test system: Mycobacterium tuberculosis; assay type: functional; conditions: H37Rv, 168 h, time 7 day; remark: listed apart in the source
[49] = test system: Mycobacterium tuberculosis; assay type: functional; conditions: H37Rv, 168 h, time 7 day; remark: listed apart in the source
[50] = Metabolic stability in human liver microsomes assessed as parent compound remaining at 1 uM in presence of NADPH by LC-MS/MS analysis; assay type: ADME, Microsome
[51] = test system: Mycobacterium tuberculosis; assay type: functional; conditions: H37Rv, 168 h, time 7 day; remark: listed apart in the source
[52] = Metabolic stability in rat liver microsomes assessed as parent compound remaining at 1 uM in presence of NADPH by LC-MS/MS analysis; assay type: ADME, Microsome
[53] = Metabolic stability in mouse liver microsomes assessed as parent compound remaining at 1 uM in presence of NADPH by LC-MS/MS analysis; assay type: ADME, Microsome

## Cc1cc(Nc2ccc(F)cc2)n(-c2nc(C(F)(F)F)cc(=O)[nH]2)n1
[1]
  clearance: 80.9 mL/min/kg
[2]
  Tmax: 30 min
[3]
  Stabilty: 98%
[4]
  bioavailability: 33%
[5]
  Cmax: 2900 nM
CHO
  IC50: 20 µM
[6]
  Vd: 37.4 L/kg
[7]; buffer
  solubility: 15 µM (≈ 5.3 µg/mL)
[8]
  MIC: 1.2 µM (≈ 0.424 µg/mL)
[9]
  Kinetic_solubility: 15 µM
[10]
  half-life: 264 min
[11]
  CL: > 4000 mL/min/kg
[12]
  half-life: 336 min
[13]
  AUC(0-inf): 1.52 µM·h
[14]
  Cmax: 2400 nM
[15]
  Stabilty: 96%
[16]
  Fu: 0.013
[17]
  Activity: 2 log10CFU
[18]
  Activity: Active
[19]
  MIC: 1.56 µM (≈ 0.551 µg/mL)
[20]
  AUC(0-inf): 5.22 µM·h
[21]
  Stabilty: 98%

## Cc1cc(Nc2ccccn2)n(-c2nc(C(F)(F)F)cc(=O)[nH]2)n1
[22]
  Activity: Active
[23]
  fold change (FC): 2
[24]
  fold change (FC): 2
[25]
  fold change (FC): 2
[26]
  Activity: Active
[3]
  Stabilty: > 99%
[27]
  Activity: Active
[28]
  fold change (FC): 2
[29]
  Activity: Active
[30]
  Activity: Active
[31]
  Activity: Active
[32]
  Activity: Active
[33]
  Activity: Active
[34]
  fold change (FC): 2
[35]
  Activity: Active
[36]
  fold change (FC): 2
[37]
  fold change (FC): 2
CHO
  IC50: 23 µM
[7]; buffer
  solubility: 25 µM (≈ 8.41 µg/mL)
[9]
  Kinetic_solubility: 25 µM
[38]
  fold change (FC): >=32
[39]
  MIC: 0.12 µM (≈ 0.0404 µg/mL)
[40]
  Activity: Active
[41]
  fold change (FC): 2
[15]
  Stabilty: > 99%
[42]
  Activity: Active
[19]
  MIC: 0.9 µM (≈ 0.303 µg/mL)
[21]
  Stabilty: 96%
[43]
  deltaA: 300 nm
[44]
  Activity: Active
[45]
  Activity: Active

## Cc1ccc(Nc2cc(C)nn2-c2nc(C)cc(O)n2)cc1
[46]
  MIC: 6 µM (≈ 1.77 µg/mL)
Vero
  IC50: 1200 nM
[47]
  logD at 3 h: 2.2
[48]
  MIC: 0.02 µM (≈ 0.00591 µg/mL)
[49]
  MIC: 0.2 µM (≈ 0.0591 µg/mL)
[7]; aqueous, read-out: solubility
  solubility: < 5 µM
[8]
  MIC: 4.8 µM (≈ 1.42 µg/mL)
[50]
  Stabilty: 73%
[51]
  MIC: 0.4 µM (≈ 0.118 µg/mL)
[52]
  Stabilty: 76%
[18]
  Activity: Active
[19]
  MIC: 2 µM (≈ 0.591 µg/mL)
[53]
  Stabilty: 78%
